Entries after “also recorded” stand apart in the source; their conditions may differ.
Experiments:
[1] = test system: hormone refractory prostate cancer (HRPC); details: HRPC patients, Docetaxel-based chemotherapy; cited from earlier work
[2] = test system: prostate cancer cells (DU145); test: spheroid (prostasphere) / colony formation of prostate cancer stem cells embedded in SAP, non-adherent plate; type: cell-based; details: for state of CSCs: 14 days after plating; for prostasphere detection: 14 days after plating in non-adherent plate
Method: The SAP solution was prepared by using RADA16-I dry powder (made in the Ellis-Behnke lab) and mixed in an Eppendorf tube. The solution contained 10 or 30 mg of RADA16-I powder in 1 ml of Milli-Q water (Millipore Corp., Billerica Mass.), mixed, then sonicated for 30 seconds and filtered; this produced 1% and 3% SAP, respectively.
Pre-mix medium for spheroid assay. Mix 50 ml SFM (DMEM-F12-high glucose with 0.25% methylcellulose) and add 1 ml b27 per 50 ml SFM (50× stock). The growth factors are: fibroblast growth factor-basic (FGF) (Sigma cat. no. F0291)—25 μg dissolved in 1.0 ml of 5 mM Tris (pH 7.6) and sterilized with a 0.22 μm pore size filter (make 20 μl aliquots (stored at −20° C.) and add 10 μl per 50 ml of SFM); Epidermal growth factor (EGF) (Sigma cat. no. E4127)—0.1 mg dissolved in 1.0 ml of phosphate-buffered saline containing 0.1% bovine serum albumin (Sigma cat. no. A7511) (make […] (stored at −20° C.) and add 10 μl per 50 ml of SFM); Insulin 10 mg/ml—add 20 μl per 50 ml.
To remove prostate cancer cells (DU145, ATCC, Rockville, Md.) from adherent culture, trypsin was used to liberate and then re-suspend 400 cells per 1 μl plated in each well (10). Before plating the cells, the plate was coated with polyhema (Sigma, St. Louis, Mo.).
(§1) Untreated SAP solution has a very low pH (about 3-4). We neutralized the SAP solution in culture medium before implanting cells in the material. Briefly, for both 1% and 3%, SAP was placed in a dry dish and then 500 μl of culture medium added at the edge of the dish. This was to ensure that the culture medium would not wash the SAP away. The self-assembly occurred as soon as the material made contact with the medium. The medium was changed once at 30 minutes, and then removed. The 400 cells were placed either in the assembled SAP or a control well. Culture medium was then added at the edge of the dish in both SAP cases, and topped up every 2 days to compensate for evaporation. On day 14, the cells were vigorously washed out of the SAP using culture medium. In the 1% case, group 1 (n=4), the cells and SAP were moved to a new well and contents were washed multiple times to separate them from the SAP. In the 3% case, group 2 (n=4), the wells were also vigorously washed to remove the cells from the SAP. However, in both the 1% and 3% SAP concentration, not all of the cells were liberated. The culture continued to grow for 28 days at which point the wells were fixed with 4% paraformaldahyde.

[3] = pH of untreated SAP solution; type: physicochemical; details: before neutralization in culture medium
Method: as §1

CC(=O)O[C@@]12CO[C@@H]1C[C@H](O)[C@@]1(C)C(=O)[C@H](O)C3=C(C)[C@@H](OC(=O)[C@H](O)[C@@H](NC(=O)OC(C)(C)C)c4ccccc4)C[C@@](O)([C@@H](OC(=O)c4ccccc4)[C@H]21)C3(C)C [Docetaxel]
improvement of median survival time [1]: 3 months

n-RADARADARADARADA-c [SAP]
state of CSCs ([2]; 1% SAP): most of the CSCs remained single cells
prostasphere detection ([2]; 1% SAP): no prostaspheres could be detected
time remaining cells continued to be quiescent (no division, no colony formation) ([2]; 1% SAP, cells not liberated by day-14 washout): up to 28 days
state of cells at day 10 (FIG. 1G) ([2]; 1% SAP, day 10): still single cells
cell division and colony formation while cells are in the material ([2]; 1% SAP, group 1 (n=4)): remained quiescent; also recorded: delayed division and formation of colonies
colonies when cells completely surrounded by the material ([2]; 1% and 3% SAP): no colonies were seen
colonies when part of the cell was exposed ([2]; 1% and 3% SAP, some cases): a colony of reduced size was seen
time proliferation of cells was suspended ([2]; 1% and 3% SAP, experiment then stopped): 28 days
state of CSCs ([2]; 3% SAP): most of the CSCs remained single cells
prostasphere detection ([2]; 3% SAP): no prostaspheres could be detected
cell division or colony formation of cells that remained in the material ([2]; 3% SAP, at 28 days): no cell division or colony formation
state of cells at day 10 (FIG. 1H) ([2]; 3% SAP, day 10): still single cells
size of single cell remaining in SAP (FIG. 1O) ([2]; 3% SAP, day 28): still the same size as day 1
time CSCs remained quiescent ([2]; CSCs from prostate cancer cell lines embedded in SAP): more than 28 days
self-renewal of prostate CSC ([2]; SAP, viability and CSC property preserved): completely inhibit
time until colonization visible post-washout ([2]; cells washed out of 1% SAP): 10 days
viability and self-renewal of embedded cells after washout ([2]; cells washed out of 1% SAP and replated): viable and capable of self-renewal
time until prostaspheres visible after washout ([2]; cells washed out of 1% SAP at day 14, replated in non-adherent plate): 8 days
time until prostaspheres evident post-washout ([2]; cells washed out of 3% SAP at day 14): 8 days
division of cancer cells in vitro and subsequent colony formation ([2]; each group, cells placed in the SAP): stopped
pH of untreated SAP solution [3]: 3-4
